From PubChem BioAssay (NCI)
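Dose response: 5 concentrations. Exposure: 48 h. Format: 96-well plates. Endpoint: linear interpolation; highest concentration if not reached. Here, GI50 denotes the concentration required for 50% inhibition of growth. TGI: total growth inhibition.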

What was measured:
Assay in all cases: NCI anticancer screen, dose series, 48 h
A549 NSCLC = tested on: A549 NSCLC
COLO 205 colon = tested on: COLO 205 colon
HCT-15 colon = tested on: HCT-15 colon
KM12 colon = tested on: KM12 colon
MALME-3M melanoma = tested on: MALME-3M melanoma
NCI-H460 lung = tested on: NCI-H460 lung
SK-MEL-28 melanoma = tested on: SK-MEL-28 melanoma
SN12C renal = tested on: SN12C renal
SNB-19 CNS = tested on: SNB-19 CNS
TK-10 renal = tested on: TK-10 renal
U251 CNS = tested on: U251 CNS

SMILES	TGI (A549 NSCLC) [µM]	TGI (COLO 205 colon) [µM]	TGI (HCT-15 colon) [µM]	TGI (KM12 colon) [µM]	TGI (MALME-3M melanoma) [µM]	TGI (NCI-H460 lung) [µM]	TGI (SK-MEL-28 melanoma) [µM]	TGI (SN12C renal) [µM]	TGI (SNB-19 CNS) [µM]	TGI (TK-10 renal) [µM]	TGI (U251 CNS) [µM]	GI50 (COLO 205 colon) [µM]	GI50 (HCT-15 colon) [µM]	GI50 (KM12 colon) [µM]	GI50 (MALME-3M melanoma) [µM]	GI50 (SK-MEL-28 melanoma) [µM]	GI50 (SN12C renal) [µM]	GI50 (TK-10 renal) [µM]	GI50 (U251 CNS) [µM]
CO[C@](C(=O)OC[C@H]1[C@@H](COC(C)=O)[C@@H]2O[C@H]1c1cc3c(cc12)OCO3)(c1ccccc1)C(F)(F)F	94.3	93.2	> 100	> 100	> 100	49.6	> 100	> 100	> 100	> 100	> 100	–	–	–	–	–	–	–	–
COc1cc(/C=C2\CN(S(=O)(=O)c3ccc(C)cc3)C/C(=C\c3cc(CN4CCCC4)c(O)c(OC)c3)C2=O)cc(CN2CCCC2)c1O	–	2.03	5.83	2.56	3.3	–	3.51	2.8	–	3.49	2.34	0.568	1.94	1.23	1.71	1.92	1.24	1.86	0.82
Oc1ccc(NCn2c(=S)sc3ccccc32)cc1	> 100	> 100	> 100	> 100	> 100	> 100	> 100	> 100	> 100	> 100	> 100	–	–	–	–	–	–	–	–
CON(C)C(=O)C(Cc1ccccc1)NC(=O)OCc1ccccc1 (centres undefined)	> 100	> 100	> 100	> 100	> 100	> 100	> 100	> 100	> 100	> 100	> 100	–	–	–	–	–	–	–	–
CCOC(=O)c1csc(NC(=O)CN2CCCC2)n1	> 100	> 100	> 100	> 100	–	> 100	> 100	–	> 100	> 100	> 100	–	–	–	–	–	–	–	–
O=C(CC1Sc2ccccc2NC1=O)Nc1ccccc1[N+](=O)[O-] (centres undefined)	> 100	> 100	> 100	> 100	> 100	> 100	> 100	> 100	> 100	> 100	> 100	–	–	–	–	–	–	–	–
CC1NC(=O)C(C)C(c2ccccc2)N(N=O)C1c1ccccc1 (centres undefined)	> 100	> 100	> 100	> 100	> 100	> 100	> 100	> 100	> 100	–	> 100	–	–	–	–	–	–	–	–
